From patent US20250152592A1, “PHARMACEUTICAL COMPOSITION COMPRISING ALLOPURINOL, FEBUXOSTAT OR PHARMACEUTICALLY ACCEPTABLE SALT THEREOF FOR PREVENTION OR TREATMENT OF CHRONIC KIDNEY DISEASE IN SUBJECT HAVING HIGH SERUM URIC ACID CONCENTRATION” (Indream Healthcare Inc., priority 2022, published 2025)

Key:
[1] = tested on: patients with gout and a history of major cardiovascular diseases; assay: clinical trial febuxostat vs allopurinol: serum uric acid, gout flare, treatment discontinuation; type: in vivo, human; conditions: overall, during the trial
Protocol: (§1) In order to evaluate non-inferiority of febuxostat to allopurinol related to cardiovascular risk, a clinical trial was designed and proceeded.
(§2) A multicenter, randomized, double-blind non-inferiority trial was performed. The details of the clinical trial design have been published previously. An independent data and safety monitoring committee with access to unblinded data monitored the clinical trial. The statistical analysis for the data and the safety monitoring committee was performed by an independent statistical group (WebbWrites).
(§3) The patients were regarded as having a history of major cardiovascular diseases, if they had myocardial infarction, hospitalization for unstable angina, stroke, hospitalization for transient ischemic attack, peripheral vascular disease, or diabetes mellitus symptoms. All participants provided a prior informed consent form.
(§4) The patients were randomly assigned so that they received febuxostat or allopurinol administered once a day in a double-blind manner. The randomization was stratified according to the estimated creatinine clearance at baseline (patient group having an estimated creatinine clearance ≥60 ml per minute vs patient group having an estimated creatinine clearance ≥30 and <60 ml per minute).
(§5) The dose of allopurinol was modified according to a kidney function. The patients with the estimated creatinine clearance 60 ml or more per minute i) initially received allopurinol at a dose of 300 mg once a day, and the dose was increased in 100 mg increments monthly until the patient had the serum uric acid concentration of less than 6.0 mg per deciliter or the dosage of allopurinol was 600 mg once a day. The patient having the estimated creatinine clearance of 30 ml or more and less than 60 ml per minute initially received 200 mg of allopurinol, and then the dose was increased in 100 mg increments until the patient either had the serum uric acid concentration of less than 6.0 mg per deciliter or was receiving the allopurinol dose of 400 mg once daily.
(§6) The dose of febuxostat was not modified according to the kidney function. The patients who were randomly assigned to receive febuxostat initially received 40 mg once a daily, and continued to receive the same dosage if the serum uric acid concentration was less than 6.0 mg per deciliter after 2 weeks of the treatment. If the serum uric acid concentration was higher than 6.0 mg per deciliter at 2nd week visit, the dose of febuxostat was increased to 80 mg once daily for the remainder of the trial.
(§7) During the period, the administration of a double-blind and double-dummy trial medications was guided by an interactive voice-response system which was a procedure to prevent unblinding for the patients whose dose was not adjusted. After completing dose adjustment, the urate level was concealed from the investigators, and the treatment was managed throughout the trial using the interactive voice-response system.
(§8) Outpatient visits were conducted according to the following schedule: during screening and randomization, and at 2, 4, 6, 8, 10, 12, and 24 weeks after the randomization, and every 6 months during the subsequent years of the trial. The patients with reduced kidney function or, the patients aged 65 years or older at randomization were visited at 9 and 15 months for monitoring the serum chemical profile. If the patient agreed to be monitored, but would not return for study visit, telephone contact was made, but such method was not preferred or recommended.

[2] = tested on: patients with gout and a history of major cardiovascular diseases; assay: eGFR over time by average serum uric acid concentration, analysis of clinical trial data; type: in vivo, human; conditions: allopurinol group
Protocol: as §1, §2, §3, §4, §5, §6, §7, §8
In order to confirm the effect of allopurinol and febuxostat on the kidney disease, the data obtained in the clinical trial described above was analyzed.

Oc1ncnc2[nH]ncc12 [allopurinol]
rate of gout flare [1]: 0.63 per patient-year | eGFR Mean (95% CI) ([2]; Baseline blood glucose level ≥126, Average UA <6, Baseline): 63.77 (62.08-65.46) ml/min/1.73 m^2 | eGFR Mean (95% CI) ([2]; Baseline blood glucose level ≥126, Average UA <6, Month 3): 63.92 (62.16-65.69) ml/min/1.73 m^2 | eGFR Mean (95% CI) ([2]; Baseline blood glucose level ≥126, Average UA <6, Month 6): 63.77 (61.98-65.56) ml/min/1.73 m^2 | eGFR Mean (95% CI) ([2]; Baseline blood glucose level ≥126, Average UA <6, Month 12): 64.33 (62.51-66.15) ml/min/1.73 m^2 | eGFR Mean (95% CI) ([2]; Baseline blood glucose level ≥126, Average UA <6, Month 18): 64.04 (61.97-66.10) ml/min/1.73 m^2 | eGFR Mean (95% CI) ([2]; Baseline blood glucose level ≥126, Average UA <6, Month 24): 64.60 (62.41-66.78) ml/min/1.73 m^2 | eGFR Mean (95% CI) ([2]; Baseline blood glucose level ≥126, Average UA <6, Month 30): 63.32 (60.93-65.71) ml/min/1.73 m^2 | eGFR Mean (95% CI) ([2]; Baseline blood glucose level ≥126, Average UA <6, Month 36): 63.57 (60.97-66.18) ml/min/1.73 m^2 | eGFR Mean (95% CI) ([2]; Baseline blood glucose level ≥126, Average UA <6, Month 42): 62.14 (59.40-64.89) ml/min/1.73 m^2 | eGFR Mean (95% CI) ([2]; Baseline blood glucose level ≥126, Average UA <6, Month 48): 64.42 (61.23-67.61) ml/min/1.73 m^2 | eGFR Mean (95% CI) ([2]; Baseline blood glucose level ≥126, Average UA <6, Month 54): 64.35 (61.09-67.61) ml/min/1.73 m^2 | eGFR Mean (95% CI) ([2]; Baseline blood glucose level ≥126, Average UA <6, Month 60): 64.49 (60.29-68.70) ml/min/1.73 m^2 | eGFR Mean (95% CI) ([2]; Baseline blood glucose level ≥126, Average UA <6, Week 2): 63.46 (61.70-65.22) ml/min/1.73 m^2 | eGFR Mean (95% CI) ([2]; Baseline blood glucose level ≥126, Average UA ≥6, Baseline): 62.56 (60.14-64.98) ml/min/1.73 m^2 | eGFR Mean (95% CI) ([2]; Baseline blood glucose level ≥126, Average UA ≥6, Month 3): 62.44 (59.88-65.00) ml/min/1.73 m^2 | eGFR Mean (95% CI) ([2]; Baseline blood glucose level ≥126, Average UA ≥6, Month 6): 61.37 (58.85-63.90) ml/min/1.73 m^2 | eGFR Mean (95% CI) ([2]; Baseline blood glucose level ≥126, Average UA ≥6, Month 12): 62.57 (60.02-65.12) ml/min/1.73 m^2 | eGFR Mean (95% CI) ([2]; Baseline blood glucose level ≥126, Average UA ≥6, Month 18): 60.70 (57.80-63.60) ml/min/1.73 m^2 | eGFR Mean (95% CI) ([2]; Baseline blood glucose level ≥126, Average UA ≥6, Month 24): 60.72 (57.46-63.99) ml/min/1.73 m^2 | eGFR Mean (95% CI) ([2]; Baseline blood glucose level ≥126, Average UA ≥6, Month 30): 60.06 (56.44-63.69) ml/min/1.73 m^2 | eGFR Mean (95% CI) ([2]; Baseline blood glucose level ≥126, Average UA ≥6, Month 36): 59.78 (55.61-63.95) ml/min/1.73 m^2 | eGFR Mean (95% CI) ([2]; Baseline blood glucose level ≥126, Average UA ≥6, Month 42): 57.66 (52.84-62.48) ml/min/1.73 m^2 | eGFR Mean (95% CI) ([2]; Baseline blood glucose level ≥126, Average UA ≥6, Month 48): 56.80 (51.66-61.93) ml/min/1.73 m^2 | eGFR Mean (95% CI) ([2]; Baseline blood glucose level ≥126, Average UA ≥6, Month 54): 57.15 (51.53-62.78) ml/min/1.73 m^2 | eGFR Mean (95% CI) ([2]; Baseline blood glucose level ≥126, Average UA ≥6, Month 60): 54.70 (48.12-61.28) ml/min/1.73 m^2 | eGFR Mean (95% CI) ([2]; Baseline blood glucose level ≥126, Average UA ≥6, Week 2): 62.27 (59.80-64.73) ml/min/1.73 m^2 | eGFR Mean (95% CI) ([2]; DBP <80, Average UA <6, Baseline): 62.91 (61.68-64.15) ml/min/1.73 m^2 | eGFR Mean (95% CI) ([2]; DBP <80, Average UA <6, Month 3): 63.26 (61.95-64.58) ml/min/1.73 m^2 | eGFR Mean (95% CI) ([2]; DBP <80, Average UA <6, Month 6): 63.55 (62.23-64.87) ml/min/1.73 m^2 | eGFR Mean (95% CI) ([2]; DBP <80, Average UA <6, Month 12): 64.71 (63.34-66.07) ml/min/1.73 m^2 | eGFR Mean (95% CI) ([2]; DBP <80, Average UA <6, Month 18): 64.41 (62.91-65.90) ml/min/1.73 m^2 | eGFR Mean (95% CI) ([2]; DBP <80, Average UA <6, Month 24): 64.00 (62.43-65.57) ml/min/1.73 m^2 | eGFR Mean (95% CI) ([2]; DBP <80, Average UA <6, Month 30): 64.49 (62.77-66.21) ml/min/1.73 m^2 | eGFR Mean (95% CI) ([2]; DBP <80, Average UA <6, Month 36): 63.61 (61.80-65.43) ml/min/1.73 m^2 | eGFR Mean (95% CI) ([2]; DBP <80, Average UA <6, Month 42): 63.91 (61.95-65.87) ml/min/1.73 m^2 | eGFR Mean (95% CI) ([2]; DBP <80, Average UA <6, Month 48): 64.88 (62.69-67.07) ml/min/1.73 m^2 | eGFR Mean (95% CI) ([2]; DBP <80, Average UA <6, Month 54): 64.19 (61.76-66.62) ml/min/1.73 m^2 | eGFR Mean (95% CI) ([2]; DBP <80, Average UA <6, Month 60): 64.73 (61.86-67.61) ml/min/1.73 m^2 | eGFR Mean (95% CI) ([2]; DBP <80, Average UA <6, Week 2): 62.85 (61.57-64.14) ml/min/1.73 m^2 | eGFR Mean (95% CI) ([2]; DBP <80, Average UA ≥6, Baseline): 60.15 (58.18-62.12) ml/min/1.73 m^2 | eGFR Mean (95% CI) ([2]; DBP <80, Average UA ≥6, Month 3): 61.22 (59.20-63.24) ml/min/1.73 m^2 | eGFR Mean (95% CI) ([2]; DBP <80, Average UA ≥6, Month 6): 61.19 (59.14-63.24) ml/min/1.73 m^2 | eGFR Mean (95% CI) ([2]; DBP <80, Average UA ≥6, Month 12): 60.39 (58.37-62.42) ml/min/1.73 m^2 | eGFR Mean (95% CI) ([2]; DBP <80, Average UA ≥6, Month 18): 60.06 (57.73-62.40) ml/min/1.73 m^2 | eGFR Mean (95% CI) ([2]; DBP <80, Average UA ≥6, Month 24): 59.51 (56.88-62.15) ml/min/1.73 m^2 | eGFR Mean (95% CI) ([2]; DBP <80, Average UA ≥6, Month 30): 59.37 (56.35-62.39) ml/min/1.73 m^2 | eGFR Mean (95% CI) ([2]; DBP <80, Average UA ≥6, Month 36): 58.89 (55.43-62.34) ml/min/1.73 m^2 | eGFR Mean (95% CI) ([2]; DBP <80, Average UA ≥6, Month 42): 57.48 (53.76-61.19) ml/min/1.73 m^2 | eGFR Mean (95% CI) ([2]; DBP <80, Average UA ≥6, Month 48): 59.25 (55.00-63.51) ml/min/1.73 m^2 | eGFR Mean (95% CI) ([2]; DBP <80, Average UA ≥6, Month 54): 58.18 (53.60-62.76) ml/min/1.73 m^2 | eGFR Mean (95% CI) ([2]; DBP <80, Average UA ≥6, Week 2): 61.16 (59.19-63.13) ml/min/1.73 m^2
